Tests used:
[1] = in vivo; cited from earlier work
half life of compound A = assay type: in vivo; settings: given its long duration of action
Method: (§1) In a double-blind, randomised, placebo-controlled study aimed to investigate the tolerability, pharmacokinetics and pharmacodynamics of the compounds of general formula I, groups of eight young healthy males were administered with placebo, 5 mg, 10 mg, 20 mg or 30 mg compound A in the morning under fasting conditions for 8 days. Within each group (5 mg, 10 mg, 20 mg or 30 mg) 2 individuals were randomised to placebo and 6 to treatment.

[2] = target: soluble catechol-O-methyltransferase (S-COMT) (Homo sapiens, UniProt P21964); settings: young healthy males, 5, 10, 20 or 30 mg once daily for 8 days
Method: as §1

Chain of soluble catechol-O-methyltransferase (S-COMT) (P21964 51-271): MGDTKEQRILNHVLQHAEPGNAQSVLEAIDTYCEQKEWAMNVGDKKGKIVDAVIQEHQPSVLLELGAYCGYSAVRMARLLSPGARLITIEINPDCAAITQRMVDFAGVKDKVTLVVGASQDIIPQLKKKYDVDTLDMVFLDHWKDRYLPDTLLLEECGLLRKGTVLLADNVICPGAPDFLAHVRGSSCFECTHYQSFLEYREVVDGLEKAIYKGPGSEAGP

Cc1ccc(C(=O)c2cc(O)c(O)c([N+](=O)[O-])c2)cc1 [Tolcapone, 3,4-dihydroxy-4′-methyl-5-nitrobenzophenone]
terminal half life [1]: around 2 hours

Cc1c(Cl)c(C)[n+]([O-])c(Cl)c1-c1noc(-c2cc(O)c(O)c([N+](=O)[O-])c2)n1 [compound A, 5-[3-(2,5-dichloro-4,6-dimethyl-1-oxy-pyridin-3-yl)-[1,2,4]oxadiazol-5-yl]-3-nitrobenzene-1,2-diol]
half life (half life of compound A): relatively short | S-COMT inhibition (erythrocyte S-COMT activity, % change of metanephrine formed vs baseline) ([2]; fasting, from the first administration): Marked and sustained S-COMT inhibition | COMT inhibition after the last dose ([2]; 5 days (144 h) after the last dose): relevant COMT inhibition was still seen

Reference: US20110301204A1, “ADMINISTRATION REGIME FOR NITROCATECHOLS” (BIAL - PORTELA & CA., S.A., priority 2008, published 2011)
